Laboratory results taken from US5478828A, “Piperazinyl-and piperidinyl-cyclohexanols” (Bristol-Myers Squibb Company, priority 1995, dated 1995).
Counter-ions that a name gives are not always drawn. Like-named read-outs stand apart in the source and are kept apart here.

Experiments:
[1] = biological target: T1, D2 receptor (Bos taurus, UniProt P20288); test: In vitro receptor binding, D2
T1 construct: from tissue
Procedure: In vitro IC50 test values for binding to the D2 receptor were determined for representative compounds of Formula I by the method of Burt, Creese, and Snyder, Molecular Pharmacology 12, 800 (1976); Creese, Burt, and Snyder, Science 196, 326 (1977); and Creese, Burt and Snyder, Science.

[2] = biological target: 5-HT1A receptor; test: In vitro receptor binding, 5-HT1A
Procedure: In vitro IC50 test values for binding to the 5-HT1A receptor were determined for representative compounds of Formula I by the method of S. J. Peroutka, Brain Research 344, 167 (1985); with only minor modifications. Test IC50 values lower than 100 nM are considered to reflect activity at the 5-HT1A receptor.

[3] = in vitro, read-out: D2 receptor binding IC50

T1 sequence (P20288 whole entry): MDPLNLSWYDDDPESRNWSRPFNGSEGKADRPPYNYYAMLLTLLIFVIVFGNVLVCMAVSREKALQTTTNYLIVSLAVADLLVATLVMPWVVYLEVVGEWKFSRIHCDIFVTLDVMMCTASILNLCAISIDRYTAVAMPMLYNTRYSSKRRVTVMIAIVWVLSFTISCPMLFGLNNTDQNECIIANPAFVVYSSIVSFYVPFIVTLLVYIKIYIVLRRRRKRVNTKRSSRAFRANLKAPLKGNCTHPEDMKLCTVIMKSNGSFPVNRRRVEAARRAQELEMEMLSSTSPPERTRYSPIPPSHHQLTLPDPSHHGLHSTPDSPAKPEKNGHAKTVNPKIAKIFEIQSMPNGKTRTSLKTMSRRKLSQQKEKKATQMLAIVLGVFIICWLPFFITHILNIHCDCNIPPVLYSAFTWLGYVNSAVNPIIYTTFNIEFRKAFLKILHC

Row | Structure (SMILES) | IC50 [1, 3] [nM] | IC50 [2] [nM] | IC50 [1] [nM]
1 | O[C@]1(c2ccc3c(c2)OCO3)CC[C@H](N2CCN(Cc3ccccc3)CC2)CC1 [Example 17, Z-1-(1,3-Benzodioxol-5-yl)-4-[4-(phenylmethyl)-1-piperazinyl]cyclohexanol] | 1710 | 20 | 
2 | COc1ccc(F)c(CN2CCN([C@H]3CC[C@](O)(c4ccc5c(c4)OCO5)CC3)CC2)c1 [Example 39, Z-1-(1,3-Benzodioxol-5-yl)-4-[4-[(2-fluoro-5-methoxyphenyl)methyl]-1-piperazinyl]cyclohexanol] |  | 0.75 | 
3 | COc1ccc([C@]2(O)CC[C@@H](N3CCN(Cc4ccccc4)CC3)CC2)cc1 [Example 18, Z-1-(4-Methoxyphenyl):4-[4-(phenylmethyl)-1-piperazinyl]cyclohexane] | 1830 | 46.5 | 
4 | COc1cccc(CN2CCN([C@H]3CC[C@](O)(c4ccc(F)cc4)CC3)CC2)c1 [Example 34, Z-1-(4-Fluorophenyl)-4-[4-[(3-methoxyphenyl)methyl]-1-piperazinyl]cyclohexanol] |  | 10.6 | 
5 | O[C@]1(c2ccc3c(c2)OCO3)CC[C@H](N2CCN(Cc3cccc(F)c3)CC2)CC1 [Example 22, Z-1-(1,3-Benzodioxol-5-yl)-4-[4-[(3-fluorophenyl)methyl]-1-piperazinyl]cyclohexanol] |  | 13.4 | 
6 | O[C@]1(c2ccc(F)cc2)CC[C@H](N2CCN(Cc3ccccc3Cl)CC2)CC1 [Example 35, Z-1-(4-Fluorophenyl)-4-[4-[(2-chlorophenyl)methyl]-1-piperazinyl]cyclohexanol] |  | 5.9 | 
7 | O[C@]1(c2ccc3c(c2)OCCO3)CC[C@@H](N2CCN(Cc3ccccc3)CC2)CC1 [Example 20-E, E-1-(1,4-Benzodioxan-6-yl)-4-[4-(phenylmethyl)-1-piperazinyl]cyclohexanol] |  | 5.3 | 
8 | O[C@]1(c2ccc(F)cc2)CC[C@H](N2CCC(Cc3ccccc3)CC2)CC1 [Example 47, Z-1-(4-Fluorophenyl)-4-[4-(phenylmethyl)-1-piperidinyl]cyclohexanol] |  | 59.8 | 
9 | COc1cccc(CC2CCN([C@H]3CC[C@](O)(c4ccc(F)cc4)CC3)CC2)c1 [Example 48] |  | 31.9 | 
10 | O[C@]1(c2ccc3c(c2)OCO3)CC[C@H](N2CCN(Cc3ccccc3F)CC2)CC1 [Example 23, Z-1-(1,3-Benzodioxol-5-yl)-4-[4,[(2-fluorophenyl)methyl]-1-piperazinyl]cyclohexanol] |  | 10.1 | 1540
11 | COc1cccc(CC2CCN([C@H]3CC[C@](OC)(c4ccc5c(c4)OCCO5)CC3)CC2)c1 [Example 45, Z-1-[4-(1,4-Benzodioxan-6-yl)-4-methoxy-1-cyclohexyl]-4-[3-(methoxyphenyl)methyl]-piperidine fumarate] |  | 3.4 | 
12 | O[C@]1(c2ccc3c(c2)OCO3)CC[C@H](N2CCN(Cc3ccccc3Cl)CC2)CC1 [Example 27, Z-1-(1,3-Benzodioxol-5-yl)-4-[4-[(2-chlorophenyl)methyl]-1-piperazinyl]cyclohexanol] |  | 1.85 | 
13 | O[C@]1(c2ccc(F)cc2)CC[C@H](N2CCC(Cc3cc(F)ccc3F)CC2)CC1 [Example 49, Z-1-(4-Fluorophenyl)-4-[4-[(2,5-difluorophenyl)methyl]-1-piperidinyl]cyclohexanol] |  | 57.6 | 
14 | O[C@]1(c2ccc3c(c2)OCO3)CC[C@H](N2CCN(Cc3ccccc3Br)CC2)CC1 [Example 50, Z-1-(1,3-Benzodioxol-5-yl)-4-[4-[(2-bromophenyl)methyl]-1-piperazinyl]cyclohexanol] |  | 1.2 | 
15 | O=[N+]([O-])c1ccccc1CN1CCN([C@H]2CC[C@](O)(c3ccc4c(c3)OCO4)CC2)CC1 [Example 25, Z-1-(1,3-Benzodioxol-5-yl)-4-[4-[(2,-nitrophenyl)methyl]-1-piperazinyl]cyclohexanol] | 7080 | 12.8 | 
16 | O[C@]1(c2ccc3c(c2)OCO3)CC[C@H](N2CCN(Cc3cccc(F)c3F)CC2)CC1 [Example 30, Z-1-(1,3-Benzodioxol-5-yl)-4-[4,[(2,3-difluorophenyl)methyl]-1-piperazinyl]-cyclohexanol] |  | 17.3 | 
17 | O[C@]1(c2ccc3c(c2)OCO3)CC[C@H](N2CCN(Cc3cc(Cl)ccc3Cl)CC2)CC1 [Example 28, Z-1-(1,3-Benzodioxol-5-yl)-4-[4-[(2,5-dichlorophenyl)methyl]-1-piperazinyl]-cyclohexanol] |  | 0.6 | 
18 | O[C@]1(c2ccc3c(c2)OCO3)CC[C@H](N2CCN(Cc3cccc4c3OCO4)CC2)CC1 [Example 33, Z-1-(1,3-Benzodioxol-5-yl)-4-[4-[(1,3-benzodioxo-4-yl)methyl]-1-piperazinyl]-cyclohexanol] |  | 34.9 | 
19 | COc1cccc(CN2CCN([C@H]3CC[C@](O)(c4ccc5c(c4)OCO5)CC3)CC2)c1 [Example 21, Z-1-(1,3,-Benzodioxol-5-yl)-4-[4-[(3-methoxyphenyl)methyl]-1-piperazinyl]-cyclohexanol] | 1040 | 2.15 | 

More lines, in order of falling IC50 [2], values ahead:

Row | IC50 [1, 3] [nM] | IC50 [2] [nM] | Structure (SMILES) | IC50 [1] [nM]
20 |  | 35.6 | COc1cccc(CN2CCN([C@H]3CC[C@](O)(c4ccc(C(F)(F)F)cc4)CC3)CC2)c1 [Example 38, Z-1-[(4-Trifluoromethyl)phenyl]-4-[4-[(3-methoxyphenyl)methyl]-1-piperazinyl]-cyclohexanol] | 
21 |  | 28.6 | O[C@]1(c2ccc3c(c2)OCO3)CC[C@H](N2CCN(C(c3ccccc3)c3ccccc3)CC2)CC1 [Example 51, Z-1-(1,3-Benzodioxol-5-yl)-4-[4-(diphenylmethyl)-1-piperazinyl]cyclohexanol] | 
22 |  | 25.8 | O[C@]1(c2ccc(C(F)(F)F)cc2)CC[C@H](N2CCN(Cc3ccccc3Cl)CC2)CC1 [Example 37, Z-1-[(4-Trifluoromethyl)phenyl]-4-[4-[(2-chlorophenyl)methyl]-1-piperazinyl]-cyclohexanol] | 
23 |  | 21.1 | O[C@]1(c2ccc3c(c2)OCO3)CC[C@H](N2CCN(Cc3cc(F)cc(F)c3)CC2)CC1 [Example 31, Z-1-(1,3-Benzodioxol-5-yl)-4-[4-[(3,5-difluorophenyl)methyl]-1-piperazinyl]-cyclohexanol] | 
24 |  | 19.1 | O[C@]1(c2ccc3c(c2)OCO3)CC[C@H](N2CCN(Cc3cccs3)CC2)CC1 [Example 26, Z-1-(1,3-Benzodioxol-5-yl)-4-[4-(2-thienylmethyl)-1-piperazinyl]cyclohexano] | 
25 |  | 18.1 | CC(c1ccccc1)N1CCN([C@H]2CC[C@](O)(c3ccc4c(c3)OCO4)CC2)CC1 (stereo partly shown) [Example 52, Z-1-(1,3-Benzodioxol-5-yl)-4-[4-(1-phenylethyl)-1-piperazinyl]cyclohexanol] | 
26 |  | 16.2 | CO[C@]1(c2ccc3c(c2)OCO3)CC[C@H](N2CCC(Cc3cc(F)ccc3F)CC2)CC1 [Example 46, Z-1-[4-(1,3-Benzodioxol-5-yl)-4-methoxy-1-cyclohexyl]-4-[(2,5,-difluorophenyl)-methyl]piperidine fumarate] | 
27 | 2710 | 15.6 | COc1ccc([C@]2(O)CC[C@@H](N3CCC(Cc4ccccc4)CC3)CC2)cc1 [Example 16, Z-1-(4-Methoxyphenyl)-4-[4-(phenylmethyl)-1-piperidinyl]cyclohexanol] | 
28 | 1350 | 14 | CO[C@]1(c2ccc3c(c2)OCO3)CC[C@H](N2CCN(Cc3ccccc3)CC2)CC1 [Example 19, Z-1-[4-(1,3,-Benzodioxol-5-yl)-4-methoxycyclohexyl]-4-(phenylmethyl)piperazine] | 
29 | 15200 | 9.9 | O[C@]1(c2ccc3c(c2)OCCO3)CC[C@H](N2CCN(Cc3ccccc3)CC2)CC1 [Example 20-Z, Z-1-(1,4-Benzodioxan-6-yl)-4-[4-(phenylmethyl)-1-piperazinyl]cyclohexanol] | 
30 | 49200 | 8.2 | COc1cccc(CC2CCN([C@H]3CC[C@](OC)(c4ccc5c(c4)OCO5)CC3)CC2)c1 [Example 44, Z-1-[4-(1,3-Benzodioxol-5-yl)-4-methoxy-1-cyclohexyl]-4-[(3-methoxyphenyl)methyl]-piperidine] | 
31 | > 1000 | 5.4 | O[C@]1(c2ccc3c(c2)OCO3)CC[C@H](N2CCC(Cc3ccccc3)CC2)CC1 [Example 15, Z-1-(1,3-Benzodioxol-5-yl)-4-[4-(phenylmethyl)-1-piperidinyl]cyclohexanol] | 
32 |  | 4.9 | O[C@]1(c2ccc3c(c2)OCO3)CC[C@H](N2CCC(Cc3cc(F)ccc3F)CC2)CC1 [Example 43, Z-1-(1,3-Benzodioxol-5-yl)-4-[4-[(2,5-difluorophenyl)methyl]-1-piperidinyl]cyclohexanol] | 
33 |  | 4.4 | COc1cccc(CC2CCN([C@H]3CC[C@](O)(c4ccc5c(c4)OCO5)CC3)CC2)c1 [Example 42, Z-1-(1,3-Benzodioxol-5-yl)-4-[4-[(3-methoxyphenyl)methyl]-1-piperidinyl]cyclohexanol] | 
34 | 2550 | 4.2 | Cc1ccccc1CN1CCN([C@H]2CC[C@](O)(c3ccc4c(c3)OCO4)CC2)CC1 [Example 24, Z-1-(1,3-Benzodioxol-5-yl)-4-[4-[(2-methylphenyl)methyl]-1-piperazinyl]cyclohexanol] | 
35 |  | 3.45 | COc1ccc(F)c(CN2CCN([C@H]3CC[C@](O)(c4ccc(F)cc4)CC3)CC2)c1 [Example 40, Z-1-(4-Fluorophenyl)-4,-[4,-[(2-fluoro-5-methoxyphenyl)methyl]-1piperazinyl]cyclohexanol] | 
36 |  | 2.6 | O[C@]1(c2ccc3c(c2)OCO3)CC[C@H](N2CCN(Cc3cc(F)ccc3F)CC2)CC1 [Example 29, Z-1-(1,3-Benzodioxol-5-yl)-4-[4-[(2,5-difluorophenyl)methyl]-1-piperazinyl]-cyclohexanol] | 
37 |  | 2.2 | COc1cccc(CC2CCN([C@H]3CC[C@](O)(c4ccc5c(c4)OCCO5)CC3)CC2)c1 [Example 41, Z-1-(1,4-Benzodioxan-6-yl)-4-[4-[(3-methoxyphenyl)methyl]-1-piperidinyl]cyclohexanol] | 
38 |  | 1.2 | O[C@]1(c2ccc3c(c2)OCO3)CC[C@H](N2CCN(Cc3ccccc3I)CC2)CC1 [Example 32, Z-1-(1,3-Benzodioxol-5-yl)-4-[4-[(2-iodophenyl)methyl]-1-piperazinyl]cyclohexanol] | 
